Results published in US11708562B2, “Differentiation of human embryonic stem cells” (Janssen Biotech, Inc., priority 2006, dated 2023).

Test system: H9P33, H9P44 and H9P48 cells
Experiment: Microarray analysis of definitive endoderm on MEFs vs MATRIGEL +/- Wnt-3A (Table VI)
Details: log format
Description: Controls for each group included cells plated on […]-coated dishes and cultured in MEF-conditioned medium or cells plated on MEFs and cultured in ES medium. All groups contained three biological replicates and each biological replicate was repeated on two separate gene chips.
Sample preparation, hybridization, and image analysis were performed according to the Affymetrix Human Genome U133 Plus 2.0 Array. Following normalization and a log transformation, data analysis was performed using OmniViz® software (MA) and […] (VizXLabs, WA). Significant differences in gene expression between the samples were evaluated using analysis of variance and an F-test with adjusted P-value (Benjamini and Hochberg correction) of ≤0.05. Only genes with a present call in at least one group were included in the analysis.

[1] = DE treatment in low serum + AA on MATRIGEL
[2] = DE treatment in low serum + AA on MEFS

Activin A: a member of the TGFβ superfamily; growth factor (R&D Systems) used to differentiate human embryonic stem cells
mean normalized intensity: Homo sapiens chorionic somatomammotropin hormone 2 (CSH2), transcript variant 1, mRNA. [1]: 1.124 | mean normalized intensity: Homo sapiens chorionic somatomammotropin hormone 2 (CSH2), transcript variant 4, mRNA. [1]: 0.8122 | mean normalized intensity: Homo sapiens galanin receptor 1 (GALR1), mRNA. [1]: 2.507 | mean normalized intensity: Homo sapiens growth hormone 2 (GH2), transcript variant 2, mRNA. [1]: 0.9226 | mean normalized intensity: Homo sapiens hypothetical protein FLJ20075 (FLJ20075), mRNA. [1]: −0.3592 | mean normalized intensity: Homo sapiens mRNA for SCCA2b, complete cds. [1]: 3.329 | mean normalized intensity: Homo sapiens mRNA; cDNA DKFZp586P1124 (from clone DKFZp586P1124) [1]: 0.4856 | mean normalized intensity: Homo sapiens methyl-CpG binding protein MBD2 (MBD2) mRNA, complete cds. [1]: 0.4906 | mean normalized intensity: Homo sapiens tachykinin, precursor 1 (TAC1), transcript variant beta, mRNA. [1]: 2.773 | mean normalized intensity: Homo sapiens testis expressed sequence 14 (TEX14), mRNA. [1]: 3.512 | mean normalized intensity: Homo sapiens, Similar to LIM homeobox protein 8, clone IMAGE: 4839343, mRNA. [1]: −0.06288 | mean normalized intensity: Homo sapiens, Similar to cadherin 6, type 2, K-cadherin (fetal kidney), clone MGC: 1470, mRNA, complete cds. [1]: 2.547 | mean normalized intensity: Homo sapiens, Similar to hypothetical protein FLJ10058, clone MGC: 34305 IMAGE: 5167647, mRNA, complete cds. [1]: 1.698 | mean normalized intensity: Homo sapiens, Similar to hypothetical protein FLJ32001, clone MGC: 39559 IMAGE: 4828136, mRNA, complete cds. [1]: 0.5207 | mean normalized intensity: Homo sapiens, clone IMAGE: 4067166, mRNA [1]: 0.1959 | mean normalized intensity: Homo sapiens, clone IMAGE: 4828836, mRNA. [1]: 0.9729 | mean normalized intensity: Homo sapiens, serine (or cysteine) proteinase inhibitor, clade B (ovalbumin), member 3, clone MGC: 12244, mRNA, complete cds. [1]: 1.969 | mean normalized intensity: Human mRNA upregulated during camptothecin-induced apoptosis of U937 cells. [1]: 0.4945 | mean normalized intensity: Human platelet-derived growth factor alpha-receptor (PDGFRA) mRNA, exons 13-16 [1]: 2.445 | mean normalized intensity: KIAA1151 protein [1]: 0.6425 | mean normalized intensity: caldesmon 1 [1]: 7.092 | mean normalized intensity: nuclear receptor subfamily 1, group I, member 3 [1]: 1.779 | mean normalized intensity: ESTs (DE treatment in low serum + AA on MATRIGEL, gene line r2006): 1.5857 | mean normalized intensity: ESTs (DE treatment in low serum + AA on MATRIGEL, gene line r2025): 1.531 | mean normalized intensity: ESTs (DE treatment in low serum + AA on MATRIGEL, gene line r2032): 0.1336 | mean normalized intensity: paternally expressed 3 (DE treatment in low serum + AA on MATRIGEL, gene line r2033): 2.876 | mean normalized intensity: ESTs (DE treatment in low serum + AA on MATRIGEL, gene line r2038): 3.262 | mean normalized intensity: paternally expressed 3 (DE treatment in low serum + AA on MATRIGEL, gene line r2093): 2.874 | mean normalized intensity: ESTs (DE treatment in low serum + AA on MATRIGEL, gene line r2134): −1.3795 | mean normalized intensity: ESTs (DE treatment in low serum + AA on MATRIGEL, gene line r2148): 4.454 | mean normalized intensity: DKFZP566K1924 protein [2]: 1.391 | mean normalized intensity: H. sapiens mRNA for B-HLH DNA binding protein. [2]: 3.451 | mean normalized intensity: Homo sapiens BCL2-interacting killer (apoptosis-inducing) (BIK), mRNA. [2]: 3.562 | mean normalized intensity: Homo sapiens Charot-Leyden crystal protein (CLC), mRNA. [2]: 2.1096 | mean normalized intensity: Homo sapiens HES-related repressor protein 1 HERP1 mRNA, complete cds. [2]: 2.406 | mean normalized intensity: Homo sapiens HSPC156 protein (HSPC156), mRNA. [2]: 1.296 | mean normalized intensity: Homo sapiens KIAA0469 gene product (KIAA0469), mRNA. [2]: 2.565 | mean normalized intensity: Homo sapiens PNAS-123 mRNA, complete cds [2]: 1.847 | mean normalized intensity: Homo sapiens Wilms tumor 1 (WT1), transcript variant D, mRNA. [2]: −2.435 | mean normalized intensity: Homo sapiens cDNA FLJ11398 fis, clone HEMBA1000637. [2]: 1.849 | mean normalized intensity: Homo sapiens cDNA: FLJ22547 fis, clone HSI00356 [2]: 2.095 | mean normalized intensity: Homo sapiens cadherin 6, type 2, K-cadherin (fetal kidney) (CDH6), mRNA. [2]: −0.8763 | mean normalized intensity: Homo sapiens chorionic somatomammotropin hormone 2 (CSH2), transcript variant 1, mRNA. [2]: 2.616 | mean normalized intensity: Homo sapiens chorionic somatomammotropin hormone 2 (CSH2), transcript variant 4, mRNA. [2]: 2.218 | mean normalized intensity: Homo sapiens galanin receptor 1 (GALR1), mRNA. [2]: −0.338 | mean normalized intensity: Homo sapiens growth hormone 2 (GH2), transcript variant 2, mRNA. [2]: 1.4679 | mean normalized intensity: Homo sapiens hypothetical protein FLJ20075 (FLJ20075), mRNA. [2]: −0.06528 | mean normalized intensity: Homo sapiens mRNA for SCCA2b, complete cds. [2]: 0.568 | mean normalized intensity: Homo sapiens mRNA; cDNA DKFZp586P1124 (from clone DKFZp586P1124) [2]: −3.094 | mean normalized intensity: Homo sapiens methyl-CpG binding protein MBD2 (MBD2) mRNA, complete cds. [2]: −1.702 | mean normalized intensity: Homo sapiens tachykinin, precursor 1 (TAC1), transcript variant beta, mRNA. [2]: 1.483 | mean normalized intensity: Homo sapiens testis expressed sequence 14 (TEX14), mRNA. [2]: −1.3824 | mean normalized intensity: Homo sapiens, Similar to LIM homeobox protein 8, clone IMAGE: 4839343, mRNA. [2]: −1.11 | mean normalized intensity: Homo sapiens, Similar to cadherin 6, type 2, K-cadherin (fetal kidney), clone MGC: 1470, mRNA, complete cds. [2]: 2.134 | mean normalized intensity: Homo sapiens, Similar to hypothetical protein FLJ10058, clone MGC: 34305 IMAGE: 5167647, mRNA, complete cds. [2]: 0.2156 | mean normalized intensity: Homo sapiens, Similar to hypothetical protein FLJ32001, clone MGC: 39559 IMAGE: 4828136, mRNA, complete cds. [2]: 1.269 | mean normalized intensity: Homo sapiens, clone IMAGE: 4067166, mRNA [2]: 0.277 | mean normalized intensity: Homo sapiens, clone IMAGE: 4828836, mRNA. [2]: −1.484 | mean normalized intensity: Homo sapiens, serine (or cysteine) proteinase inhibitor, clade B (ovalbumin), member 3, clone MGC: 12244, mRNA, complete cds. [2]: −1.566 | mean normalized intensity: Human mRNA upregulated during camptothecin-induced apoptosis of U937 cells. [2]: −0.1892 | mean normalized intensity: Human platelet-derived growth factor alpha-receptor (PDGFRA) mRNA, exons 13-16 [2]: 2.905 | mean normalized intensity: KIAA1151 protein [2]: 1.009 | mean normalized intensity: caldesmon 1 [2]: 5.634 | mean normalized intensity: nuclear receptor subfamily 1, group I, member 3 [2]: −0.1968 | mean normalized intensity: ESTs (DE treatment in low serum + AA on MEFS, gene line r2006): −1.3 | mean normalized intensity: ESTs (DE treatment in low serum + AA on MEFS, gene line r2025): 1.373 | mean normalized intensity: ESTs (DE treatment in low serum + AA on MEFS, gene line r2032): −1.566 | mean normalized intensity: paternally expressed 3 (DE treatment in low serum + AA on MEFS, gene line r2033): −0.0118 | mean normalized intensity: ESTs (DE treatment in low serum + AA on MEFS, gene line r2038): 1.5682 | mean normalized intensity: paternally expressed 3 (DE treatment in low serum + AA on MEFS, gene line r2093): −3.492 | mean normalized intensity: ESTs (DE treatment in low serum + AA on MEFS, gene line r2134): −0.9461 | mean normalized intensity: ESTs (DE treatment in low serum + AA on MEFS, gene line r2148): 5.334
